# Assay results as given in patent US20080176810A1, “Use of 3, 4', 5-Trihydroxy-Stilbene-3-Beta-D-glucoside in Prepartion of Medicines For Treating and/or Preventing Ischemic Heart Disease” (SHENZHEN NEPTUNUS PHARMACEUTICAL CO., LTD., priority 2004, published 2008).
# System: anesthetized dogs
# Assay: Myocardial oxygen consumption, coronary flow, cardiac output in anesthetized dogs, iv
# Format: in vivo
# Details: c3-c8 5,15,30,60,90,120 min after administration; for cardiac output, x ± s / myocardial oxygen uptake, x ± s / coronary artery resistance, x ± s / myocardial oxygen consumption, x ± s / total peripheral resistance (TPR), x ± s: c2 0 min before
# Procedure: Isosorbide Dinitrate control group were medicated by continuous intravenous infusion and other groups by intravenous injection.
# The animals were anesthetised with 3% pentobarbital sodium iv at the dose of 30 mg/kg. Tracheal intubation was performed and SC-M5 anesthesia respirator (manufactured by Shanghai Medical Instrument Factory, frequency: 16˜18 per min, tidal volume: 350˜550 ml) was connected. Bilateral femoral arteries were separated for blood sampling and analyzing and measurement of mean blood pressure. Thoracotomy at the fourth intercostal space was performed to expose the heart and to open the pericardium to make pericardial hammock. Ascending aortic root and upper part of left branch of anterior descending coronary artery were dissociated to put respectively probes of electromagnetic flowmeter (MFV-1100/1200, made by Japanese Nihon Kohden Company) to measure cardiac output and coronary artery flow rate. Right jugular vein was separated for insertion of a cardiac catheter that was guided into coronary venous sinuses before fixation. Synchronously, blood was sampled by drawing from coronary sinus and femoral artery (0.5% heparin was added for anticoagulation). pO2 and pH were detected with a blood gas analyzer (DH-1830 Blood Gas Acid-base Analyze, Nanjing Ananalysis Apparatus Factor) and the values were converted to artery and venous oxygen content. After intravenous infusion of control solvent or the drug, constant infusion for all groups was completed with an electronic constant flow pump (SH-88AB Controllable Intravenous Injector made by Quanzhou Lizhong Electronic Medical Instrument Factory). Both artery and venous blood gas before administration or 5, 15, 30, 60, 90 and 120 min after administration was analyzed and mean blood pressure and cardiac output at 0, 5, 15, 30, 60, 90 and 120 min were observed.
# Myocardial oxygen consumption(ml/min/100 g)=coronary flow ml/min/100 g×artery oxygen−coronary sinus oxygen ml %).
# Myocardial oxygen uptake (%)=(artery oxygen ml %−coronary sinus oxygen ml %)/artery oxygen ml %
# Total peripheral resistance of general circulation(dyn·s·cm−5)=mean arterial blood pressure[MAP(KPa)]×80/cardiac output[CO(L/min)]=mean arterial blood pressure[MAP(mmHg)]×10.6/cardiac output[CO(L/min)]
# Coronary resistance[Kpa/ml/min]=mean arterial blood pressure[MAP(KPa)]/coronary artery flow.
# [1] = TSG 5 mg/kg iv, before administration, 0 min
# [2] = TSG 5 mg/kg iv, 5 min after administration
# [3] = TSG 5 mg/kg iv, 15 min after administration
# [4] = TSG 5 mg/kg iv, 30 min after administration
# [5] = TSG 5 mg/kg iv, 60 min after administration
# [6] = TSG 5 mg/kg iv, 90 min after administration
# [7] = TSG 5 mg/kg iv, 120 min after administration
# [8] = TSG 10 mg/kg iv, 0 min, before administration
# [9] = TSG 10 mg/kg iv, 5 min after administration
# [10] = TSG 10 mg/kg iv, 15 min after administration
# [11] = TSG 10 mg/kg iv, 30 min after administration
# [12] = TSG 10 mg/kg iv, 60 min after administration
# [13] = TSG 10 mg/kg iv, 90 min after administration
# [14] = TSG 10 mg/kg iv, 120 min after administration
# [15] = TSG 10 mg/kg iv, before administration, 0 min
substance,measurement,setting,value
"3,4′,5-trihydroxy-stilbene-3-β-D-glucoside [TSG]","cardiac output, x ± s",[1],1.09 ± 0.14 L/min
same,"myocardial oxygen uptake, x ± s",[1],79.5 ± 6.93%
same,"cardiac output, variation %",[2],3.58 ± 2.00%
same,"coronary artery resistance, variation %",[2],3.03%
same,"myocardial oxygen consumption, variation %",[2],−0.52 ± 1.59%
same,"myocardial oxygen uptake, variation %",[2],0.15%
same,"total peripheral resistance (TPR), variation %",[2],−0.82 ± 2.72%
same,"cardiac output, variation %",[3],3.47 ± 0.97%
same,"coronary artery resistance, variation %",[3],2.18 ± 2.46%
same,"total peripheral resistance (TPR), variation %",[3],1.31 ± 2.04%
same,"cardiac output, variation %",[4],5.25 ± 2.62%
same,"coronary artery resistance, variation %",[4],0.02 ± 3.86%
same,"myocardial oxygen consumption, variation %",[4],−0.59 ± 2.68%
same,"myocardial oxygen uptake, variation %",[4],−5.76 ± 5.34 %
same,"total peripheral resistance (TPR), variation %",[4],0.90 ± 1.20%
same,"cardiac output, variation %",[5],6.05 ± 2.06 %
same,"coronary artery resistance, variation %",[5],−3.62 ± 3.63%
same,"myocardial oxygen consumption, variation %",[5],0.68 ± 1.74%
same,"myocardial oxygen uptake, variation %",[5],−6.24 ± 4.39 %
same,"total peripheral resistance (TPR), variation %",[5],0.20 ± 1.19%
same,"cardiac output, variation %",[6],5.98 ± 2.02 %
same,"coronary artery resistance, variation %",[6],−4.03 ± 2.13%
same,"myocardial oxygen consumption, variation %",[6],−0.91 ± 2.81%
same,"myocardial oxygen uptake, variation %",[6],−5.51 ± 4.5 %
same,"total peripheral resistance (TPR), variation %",[6],−1.59 ± 3.63%
same,"cardiac output, variation %",[7],4.86 ± 2.88%
same,"coronary artery resistance, variation %",[7],−3.99 ± 3.34 %
same,"total peripheral resistance (TPR), variation %",[7],−2.75 ± 3.55%
same,"coronary artery resistance, x ± s",[8],0.273 ± 0.032 Kpa/ml/min
same,"myocardial oxygen consumption, x ± s",[8],214.1 ± 6.66 mL/min.100 g^−1
same,"total peripheral resistance (TPR), x ± s",[8],891.8 ± 93.4 dyn·s·cm^−5
same,"cardiac output, x ± s",[9],1.13 ± 0.13 L/min
same,"coronary artery resistance, x ± s",[9],0.286 Kpa/ml/min
same,"myocardial oxygen consumption, x ± s",[9],211.0 ± 5.44 mL/min.100 g^−1
same,"myocardial oxygen uptake, x ± s",[9],78.7%
same,"total peripheral resistance (TPR), x ± s",[9],890.5 ± 82.2 dyn·s·cm^−5
same,"cardiac output, x ± s",[10],1.14 ± 0.14 L/min
same,"coronary artery resistance, x ± s",[10],0.278 ± 0.028 Kpa/ml/min
same,"total peripheral resistance (TPR), x ± s",[10],891.3 ± 78.1 dyn·s·cm^−5
same,"cardiac output, x ± s",[11],1.16 ± 0.13 L/min
same,"coronary artery resistance, x ± s",[11],0.274 ± 0.035 Kpa/ml/min
same,"myocardial oxygen consumption, x ± s",[11],208.0 ± 5.3 mL/min.100 g^−1
same,"myocardial oxygen uptake, x ± s",[11],71.3 ± 5.28%
same,"total peripheral resistance (TPR), x ± s",[11],903.4 ± 76.9 dyn·s·cm^−5
same,"cardiac output, x ± s",[12],1.18 ± 0.14 L/min
same,"coronary artery resistance, x ± s",[12],0.267 ± 0.037 Kpa/ml/min
same,"myocardial oxygen consumption, x ± s",[12],210.3 ± 6.32 mL/min.100 g^−1
same,"myocardial oxygen uptake, x ± s",[12],71.7 ± 5.71 %
same,"total peripheral resistance (TPR), x ± s",[12],878.7 ± 90.9 dyn·s·cm^−5
same,"cardiac output, x ± s",[13],1.18 ± 0.15 L/min
same,"coronary artery resistance, x ± s",[13],0.270 ± 0.040 Kpa/ml/min
same,"myocardial oxygen consumption, x ± s",[13],209.1 ± 6.38 mL/min.100 g^−1
same,"myocardial oxygen uptake, x ± s",[13],72.4 ± 5.51 %
same,"total peripheral resistance (TPR), x ± s",[13],872.9 ± 98.6 dyn·s·cm^−5
same,"cardiac output, x ± s",[14],1.15 ± 0.16 L/min
same,"coronary artery resistance, x ± s",[14],0.263 ± 0.038 Kpa/ml/min
same,"total peripheral resistance (TPR), x ± s",[14],863.7 ± 80.0 dyn·s·cm^−5
same,"cardiac output, x ± s",[15],1.08 ± 0.15 L/min
same,"myocardial oxygen uptake, x ± s",[15],80.0 ± 6.55%
same,"cardiac output, variation %",[9],4.60 ± 3.19%
same,"coronary artery resistance, variation %",[9],4.63%
same,"myocardial oxygen consumption, variation %",[9],−1.45 ± 1.13%
same,"myocardial oxygen uptake, variation %",[9],−1.46%
same,"total peripheral resistance (TPR), variation %",[9],0.02 ± 4.07%
same,"cardiac output, variation %",[10],5.74 ± 2.02 %
same,"coronary artery resistance, variation %",[10],1.79 ± 3.25%
same,"total peripheral resistance (TPR), variation %",[10],0.09 ± 2.25%
same,"cardiac output, variation %",[11],7.43 ± 3.40 %
same,"coronary artery resistance, variation %",[11],0.21 ± 1.44%
same,"myocardial oxygen consumption, variation %",[11],−2.77 ± 3.75%
same,"myocardial oxygen uptake, variation %",[11],−10.7 ± 4.01 %
same,"total peripheral resistance (TPR), variation %",[11],1.49 ± 3.81%
same,"cardiac output, variation %",[12],9.41 ± 4.82 %
same,"coronary artery resistance, variation %",[12],−2.64 ± 2.78%
same,"myocardial oxygen consumption, variation %",[12],−1.75 ± 3.51%
same,"myocardial oxygen uptake, variation %",[12],−10.3 ± 5.25 %
same,"total peripheral resistance (TPR), variation %",[12],−1.42 ± 3.68%
same,"cardiac output, variation %",[13],9.05 ± 2.24 %
same,"coronary artery resistance, variation %",[13],−1.69 ± 4.78%
same,"myocardial oxygen consumption, variation %",[13],−2.28 ± 3.5%
same,"myocardial oxygen uptake, variation %",[13],−9.32 ± 3.22 %
same,"total peripheral resistance (TPR), variation %",[13],−2.16 ± 2.50%
same,"cardiac output, variation %",[14],6.53 ± 2.43 %
same,"coronary artery resistance, variation %",[14],−4.10 ± 5.44 %
same,"total peripheral resistance (TPR), variation %",[14],−3.00 ± 4.04%
